According to ChEMBL document CHEMBL1139555, “Discovery of potent and selective phenylalanine based dipeptidyl peptidase IV inhibitors” (Bioorg Med Chem Lett, 2005):

Columns and labels:
[1] = target: Dipeptidyl peptidase 2 (Homo sapiens, UniProt Q9UHL4)
[2] = target: Dipeptidyl peptidase 9 (Homo sapiens, UniProt Q86TI2)
[3] = target: Dipeptidyl peptidase 8 (Homo sapiens, UniProt Q6V1X1)
[4] = target: Dipeptidyl peptidase 4 (Homo sapiens, UniProt P27487)
Sequence of Dipeptidyl peptidase 4 (P27487 whole entry): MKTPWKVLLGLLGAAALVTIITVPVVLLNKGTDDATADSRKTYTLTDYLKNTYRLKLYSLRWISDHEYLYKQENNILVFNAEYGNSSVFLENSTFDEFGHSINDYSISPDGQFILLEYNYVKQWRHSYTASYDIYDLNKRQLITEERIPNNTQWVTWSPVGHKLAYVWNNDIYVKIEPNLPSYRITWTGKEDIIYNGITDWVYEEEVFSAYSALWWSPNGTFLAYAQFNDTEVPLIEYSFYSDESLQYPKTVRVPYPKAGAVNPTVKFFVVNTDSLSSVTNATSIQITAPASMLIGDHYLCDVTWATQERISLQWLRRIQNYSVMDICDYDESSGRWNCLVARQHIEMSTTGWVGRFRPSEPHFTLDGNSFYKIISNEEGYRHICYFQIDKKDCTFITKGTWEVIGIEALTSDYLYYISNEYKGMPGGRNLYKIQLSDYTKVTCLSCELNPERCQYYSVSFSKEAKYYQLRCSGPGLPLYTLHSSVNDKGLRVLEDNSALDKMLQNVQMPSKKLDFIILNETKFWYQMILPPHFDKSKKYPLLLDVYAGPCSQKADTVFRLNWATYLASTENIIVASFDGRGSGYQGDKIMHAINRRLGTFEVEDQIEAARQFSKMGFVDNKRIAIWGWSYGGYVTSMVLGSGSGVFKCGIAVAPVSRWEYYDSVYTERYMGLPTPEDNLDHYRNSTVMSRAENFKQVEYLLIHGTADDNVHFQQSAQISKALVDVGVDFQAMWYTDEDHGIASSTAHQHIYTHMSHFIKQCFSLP

Sequence of Dipeptidyl peptidase 8 (Q6V1X1 whole entry): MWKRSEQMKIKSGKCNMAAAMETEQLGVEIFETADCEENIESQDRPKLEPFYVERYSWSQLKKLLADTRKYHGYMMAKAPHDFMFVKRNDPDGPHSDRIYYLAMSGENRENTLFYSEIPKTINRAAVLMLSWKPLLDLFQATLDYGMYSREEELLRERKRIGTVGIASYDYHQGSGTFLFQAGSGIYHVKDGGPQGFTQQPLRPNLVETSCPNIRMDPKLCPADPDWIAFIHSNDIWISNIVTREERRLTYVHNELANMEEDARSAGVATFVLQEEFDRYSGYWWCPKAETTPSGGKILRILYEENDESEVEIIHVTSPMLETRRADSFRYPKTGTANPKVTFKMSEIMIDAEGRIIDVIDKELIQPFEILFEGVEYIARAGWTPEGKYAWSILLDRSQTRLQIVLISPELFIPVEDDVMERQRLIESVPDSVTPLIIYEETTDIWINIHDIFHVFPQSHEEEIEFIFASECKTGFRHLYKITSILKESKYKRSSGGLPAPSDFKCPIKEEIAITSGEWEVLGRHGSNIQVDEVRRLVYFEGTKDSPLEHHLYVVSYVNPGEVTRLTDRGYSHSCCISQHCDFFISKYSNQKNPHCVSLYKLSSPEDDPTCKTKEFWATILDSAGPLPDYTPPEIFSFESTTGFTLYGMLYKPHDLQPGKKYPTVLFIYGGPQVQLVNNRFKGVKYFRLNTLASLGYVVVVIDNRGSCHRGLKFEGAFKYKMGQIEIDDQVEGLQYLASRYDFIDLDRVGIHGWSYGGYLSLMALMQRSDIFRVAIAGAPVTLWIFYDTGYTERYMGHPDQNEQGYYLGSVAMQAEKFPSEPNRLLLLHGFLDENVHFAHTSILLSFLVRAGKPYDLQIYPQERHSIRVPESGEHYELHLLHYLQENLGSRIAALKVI
Sequence of Dipeptidyl peptidase 9 (Q86TI2 whole entry): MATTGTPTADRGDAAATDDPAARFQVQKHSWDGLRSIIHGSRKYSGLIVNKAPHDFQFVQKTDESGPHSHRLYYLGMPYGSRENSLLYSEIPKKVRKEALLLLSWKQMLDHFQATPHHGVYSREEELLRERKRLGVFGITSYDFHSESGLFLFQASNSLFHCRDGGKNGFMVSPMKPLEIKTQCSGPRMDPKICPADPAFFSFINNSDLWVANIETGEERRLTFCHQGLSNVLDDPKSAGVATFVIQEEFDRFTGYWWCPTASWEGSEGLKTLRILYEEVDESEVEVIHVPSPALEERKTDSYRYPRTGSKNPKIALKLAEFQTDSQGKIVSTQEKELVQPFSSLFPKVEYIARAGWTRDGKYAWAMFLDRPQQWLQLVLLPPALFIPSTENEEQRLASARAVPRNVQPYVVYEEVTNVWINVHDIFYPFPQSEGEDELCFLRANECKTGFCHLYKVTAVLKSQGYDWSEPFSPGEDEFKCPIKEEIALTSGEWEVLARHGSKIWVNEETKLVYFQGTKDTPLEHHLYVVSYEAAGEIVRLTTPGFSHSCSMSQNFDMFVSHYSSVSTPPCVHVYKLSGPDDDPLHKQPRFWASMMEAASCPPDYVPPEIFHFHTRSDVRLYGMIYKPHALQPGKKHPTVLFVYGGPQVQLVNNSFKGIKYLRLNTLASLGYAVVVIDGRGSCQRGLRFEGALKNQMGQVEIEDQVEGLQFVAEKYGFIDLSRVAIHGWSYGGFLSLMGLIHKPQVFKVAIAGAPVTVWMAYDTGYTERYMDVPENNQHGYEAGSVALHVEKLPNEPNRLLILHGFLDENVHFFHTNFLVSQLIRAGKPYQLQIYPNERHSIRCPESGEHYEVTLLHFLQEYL

SMILES	IC50 [1] [nM]	IC50 [2] [nM]	IC50 [3] [nM]	IC50 [4] [nM]
C[C@@H](c1ccc(-c2ccccn2)cc1)[C@H](N)C(=O)N1CC[C@H](F)C1	4600	> 100000	> 100000	240
C[C@@H](c1ccc(C(=O)[n+]2ccc[nH]2)cc1)[C@H](N)C(=O)N1CC[C@H](F)C1	1500	> 100000		1700
C[C@@H](c1ccc(-c2ccc(S(C)(=O)=O)cc2)cc1)[C@H](N)C(=O)N1CC[C@H](F)C1	1200	> 100000	> 100000	420
C[C@@H](c1cccc(F)c1)[C@H](N)C(=O)N1CC[C@H](F)C1	14000	> 100000	> 100000	3700
C[C@@H](c1ccc(-c2cccc(C(N)=O)c2)cc1)[C@H](N)C(=O)N1CC[C@H](F)C1	820			
C[C@@H](c1ccc(-c2cc(F)cc(F)c2)cc1)[C@H](N)C(=O)N1CC[C@H](F)C1	2000			240
Cc1ccc(-c2ccc([C@H](C)[C@H](N)C(=O)N3CC[C@H](F)C3)cc2)cc1	1100	> 100000		390
C[C@@H](c1ccc(F)cc1)[C@H](N)C(=O)N1CC[C@H](F)C1	23000		> 100000	
C[C@@H](c1ccc(-c2ccc(C(=O)O)cc2)cc1)[C@H](N)C(=O)N1CC[C@H](F)C1	8600	> 100000	> 100000	370
C[C@@H](c1ccc(-c2cccc(S(C)(=O)=O)c2)cc1)[C@H](N)C(=O)N1CC[C@H](F)C1	2900			110
Cc1ccccc1-c1ccc([C@H](C)[C@H](N)C(=O)N2CC[C@H](F)C2)cc1	2500	> 100000	> 100000	
COc1ccc(-c2ccc([C@H](C)[C@H](N)C(=O)N3CC[C@H](F)C3)cc2)cc1	330	> 100000		130
C[C@@H](c1ccc(-c2cccc(-c3n[nH]c(O)n3)c2)cc1)[C@H](N)C(=O)N1CC[C@H](F)C1	1100			95
C[C@@H](c1ccc(-c2ccccc2)cc1)[C@H](N)C(=O)N1CC[C@H](F)C1	3000	> 100000		120
C[C@@H](c1ccc(-c2ccc(C(F)(F)F)cc2)cc1)[C@H](N)C(=O)N1CC[C@H](F)C1	670	> 100000		510
C[C@@H](c1ccc(-c2cncnc2)cc1)[C@H](N)C(=O)N1CC[C@H](F)C1	10000	> 100000		580
C[C@@H](c1ccc(F)c(Cl)c1)[C@H](N)C(=O)N1CC[C@H](F)C1	5200			2800
C[C@@H](c1ccc(-c2cccc(NS(=O)(=O)C(F)(F)F)c2)cc1)[C@H](N)C(=O)N1CC[C@H](F)C1	1300		> 100000	27
C[C@@H](c1ccc(-c2cccc(-c3noc(C4CC4)n3)c2)cc1)[C@H](N)C(=O)N1CC[C@H](F)C1	96	> 100000		140
C[C@@H](c1ccc(-c2cccc(-c3c[nH]c(O)n3)c2)cc1)[C@H](N)C(=O)N1CC[C@H](F)C1	830			110
CSc1ccc([C@H](C)[C@H](N)C(=O)N2CC[C@H](F)C2)cc1	5900			360
C[C@@H](c1ccc(F)c(F)c1)[C@H](N)C(=O)N1CC[C@H](F)C1	11000		> 100000	1100
C[C@@H](c1ccc(-c2ccc(F)c(F)c2)cc1)[C@H](N)C(=O)N1CC[C@H](F)C1	2000			60
C[C@@H](c1ccc(-c2cccc(-n3cnnn3)c2)cc1)[C@H](N)C(=O)N1CC[C@H](F)C1	870	> 100000		140
C[C@@H](c1ccccc1)[C@H](N)C(=O)N1CCSC1		> 100000	> 100000	968
C[C@@H](c1ccc(-c2cc(F)ccc2F)cc1)[C@H](N)C(=O)N1CC[C@H](F)C1	1300	> 100000	> 100000	
